# Measurements from patent publication US7232846B2, “Amines as anti-alcoholism agents” (priority 2001, dated 2007).
# Legend:
# [1] = system: genetically-alcoholic rats (UChB strain); assay: Anti-alcoholism activity in genetically-alcoholic rats (consumption of 10% v/v alcohol); format: in vivo, rat; conditions: for Reduction percentage in the consumption of alcohol (10% v/v), treat.: first 6 h after starting the treatment, vs reference period; for Reduction percentage in the consumption of alcohol (10% v/v), post-treat.: first 6 h after having stopped a 3-day treatment
# From the text: As an animal model of alcoholic humans, adult Wistar rats of both sexes, belonging to the UChB strain were used. This strain of rats is the result of a long selection at the University of Chile, and rats belonging to it are known to be volunteer consumers of 10% (v/v) aqueous alcohol (cf. J. Mardones and N. Segovia-Riquelme, “Thirty two years of selection of rats by ethanol preference”: UChA and UChB strains”, Neurobehav. Toxicol. and Teratol. 1983, vol. 5, pp. 171–178). Thus, the rats used in these experiments can be considered genetically alcoholic.
# Rats were kept in individual cages at 22° C., with alternative 12 h periods of light and darkness. Besides unlimited access to food, they had ad libitum access to water and 10% (v/v) aqueous alcohol. All experiments were double-blind, and results were analyzed using common statistical methods. As changes in alcohol consumption might be influenced by the eagerness of food and/or water intake, both the consumption of food and of water were measured and analyzed. However, experimental changes in the consumptions of both food and water were not significant. In each experiment the following three periods of time were considered:
# a) A reference period, consisting of the three days previous to treatment. The measured consumption values were used as reference for comparison purposes.
# b) A treatment period, consisting of the three days during which aqueous solutions of the tested compounds (obtained from SIGMA) were intra-gastrically administered, always at the same time of the day. Polyamines were administered as aqueous solutions of their corresponding fully-neutralized hydrochlorides, at concentration of 100 mg of the free-amine per 100 ml of water, when doses of 2 mg of amine per kg of rat; and at concentration of 1000 mg/100 ml, When doses of 20 mg/kg. Dansyl derivatives of polyamines were administered as aqueous suspensions of 100 mg of derivative per 100 ml of water, when doses of 4 mg of free-amine per kg of rat.
# c) A post-treatment period, consisting of the three days immediate after the treatment period, during which measurement were taken in order to establish the duration of the effect and the reversibility of the changes.
# Table 1 summarizes the average results from nine experiments, each one carried out with a set of 8 rats, where several compounds at different doses were used, and measurements of alcohol consumption were done at 6 h after the beginning of the treatment period, and at 6 h after the beginning of the post-treatment period. Figures in the table are differences in 10% (v/v) ethanol consumption between a given consumption during the reference period and the corresponding consumption during the treatment (or post-treatment) period, expressed a percentage of the consumption during the reference period (i.e. divided by this and multiplied by 100). As indicated by the figures, during treatment a significant reduction occurred in all cases; and during post-treatment a significant reduction occurred in all cases but two (those marked “ns”=non significant). Results in the table also indicate that there is a dose-effect relationship in the reduction of alcohol consumption during the treatment period.
# [2] = Assessment of the disulfiram-like adverse effect (blood acetaldehyde after ethanol injection); format: in vivo, rat; conditions: Wistar rats, single 2 mg/kg p.o. 1 h before ethanol, mean ± SEM
# Description: Blood samples were taken from the tail of the rat at different times after the injection of the ethanol solution. […] The animals of the disulfiram group received two doses of 300 mg p.o. of disulfiram per kg of rat, 23 h and 17 h before the administration of ethanol. The high concentration of acetaldehyde detected in these groups was expected. […] The animals of the other four groups received a single dose p.o. of 2 mg of the corresponding compound (in the form of 10 mg/100 ml aqueous solutions, which was of the hydrochlorides in the case of polyamines) per kg of rat, 1 h before the administration of ethanol. Figures in the table are mean values (±SEM) of acetaldehyde concentration in blood at the indicated times. It is observed that values of the groups corresponding to the four tested compounds were only slightly above the control ones, but far below the corresponding values of the disulfiram group.
# [3] = dose 2 mg/kg, ns = non significant
# [4] = dose 20 mg/kg, ns = non significant
compound,measurement,setting,value
dansyl putrescine,"Reduction percentage in the consumption of alcohol (10% v/v), treat.",[1]; dose 4 mg/kg intra-gastric,23%
same,"Reduction percentage in the consumption of alcohol (10% v/v), post-treat.",[1]; dose 4 mg/kg,22%
NCCCCN [putrescine],"Reduction percentage in the consumption of alcohol (10% v/v), treat.",[1]; dose 2 mg/kg intra-gastric,13%
same,"Reduction percentage in the consumption of alcohol (10% v/v), post-treat.",[1]; [3],ns
same,"Reduction percentage in the consumption of alcohol (10% v/v), treat.",[1]; dose 20 mg/kg intra-gastric,28%
same,"Reduction percentage in the consumption of alcohol (10% v/v), post-treat.",[1]; [4],13%
NCCCCNCCCN [spermidine],"Reduction percentage in the consumption of alcohol (10% v/v), treat.",[1]; dose 2 mg/kg intra-gastric,25%
same,"Reduction percentage in the consumption of alcohol (10% v/v), post-treat.",[1]; [3],17%
same,"Reduction percentage in the consumption of alcohol (10% v/v), treat.",[1]; dose 20 mg/kg intra-gastric,29%
same,"Reduction percentage in the consumption of alcohol (10% v/v), post-treat.",[1]; [4],ns
dansyl spermidine,Acetaldehyde concentration in blood,[2]; 0.5 h after i.p. 2.76 g/kg ethanol,150 ± 5 μg/100 ml
same,Acetaldehyde concentration in blood,[2]; 2 h after i.p. 2.76 g/kg ethanol,40 ± 9 μg/100 ml
same,"Reduction percentage in the consumption of alcohol (10% v/v), treat.",[1]; dose 4 mg/kg intra-gastric,29%
same,"Reduction percentage in the consumption of alcohol (10% v/v), post-treat.",[1]; dose 4 mg/kg,19%
"NCCCN [1,3-propanediamine]","Reduction percentage in the consumption of alcohol (10% v/v), treat.",[1]; dose 20 mg/kg intra-gastric,27%
same,"Reduction percentage in the consumption of alcohol (10% v/v), post-treat.",[1]; [4],12%
NCCCNCCCCNCCCN [spermine],"Reduction percentage in the consumption of alcohol (10% v/v), treat.",[1]; dose 2 mg/kg intra-gastric,27%
same,"Reduction percentage in the consumption of alcohol (10% v/v), post-treat.",[1]; [3],29%
same,"Reduction percentage in the consumption of alcohol (10% v/v), treat.",[1]; dose 20 mg/kg intra-gastric,42%
same,"Reduction percentage in the consumption of alcohol (10% v/v), post-treat.",[1]; [4],12%
